The results in this text go back to patent publication US20230172936A1, “VCP/p97 INHIBITOR FOR THE TREATMENT OF CANCER” (Cleave Therapeutics, Inc., priority 2020, published 2023).

As a reminder, the IC50 is the point on the concentration scale where inhibition reaches its midpoint. A word on the TGI: it is the reduction of tumour growth relative to the control group. High values mean a stronger effect on the tumour, low ones a weaker effect on the tumour.

The test system of one data set is MOML-13. Put plainly: Combination Index (Chou-Talalay) of Compound 1 with additional therapeutic agents. The format is cell-based, human. The conditions noted are these: for Combination Index of Compound 1 + agent: MOML-13, CI scores across all 3 ratios averaged; for action of the combination with Compound 1 (synergistic, additive, antagonistic): MOML-13 (FLT3 heterozygous, BRCA2 mutant). How it is done:
(§1) Each combination was tested in 3 cell lines: MOML-13 (Human Acute Myeloid Leukemia cell line; Addex Bio), MV-4-11 (Human B Myelomoncytic Leukemia cell line; ATCC), and OCI-AML-3 (Human Acute Myeloid Leukemia cell line).
(§2) Within this range, 20 dose levels were tested for each combination, with each response determined in duplicate. […] The actual drug concentrations in the ratios were determined from the IC50 values obtained for each individual drug.
(§3) Raw data was analyzed using Graph Pad Prism, four parameter logistic fits, and Chou-Talalay drug combination analyses. […] For data points with Fe<0, the fractional effect was set to 0.001. Data points with Fe>0.99 or <0.01 were omitted from the Chou-Talalay analysis because the Chou-Talalay analysis fits data to the Log of the fractional effect, with equal weight applied across the range of effect, such that the high and low end of the dose response, very small changes in effect within the range of experimental error erroneously skew the outcome of the model fit.
(§4) A Combination Index (CI) vs Fractional Effect plot showing the actual combination index plotted vs Fractional effect value was plotted for each combination dose. In this analysis, CI=1 represents additive activity, CI>1 represent less than additive activity (often referred to as antagonism) and CI<1=synergistic activity (better than additive).

In another data set the test system is OCI-AML-3. The data set is described as above. The conditions noted are these: for Combination Index of Compound 1 + agent: OCI-AML-3, CI scores across all 3 ratios averaged. The format is cell-based, human. How it is done:
as §1, §2, §3, §4

The next data set concerns MV-4-11. The description is as above. The format is cell-based, human. The conditions noted are these: for Combination Index of Compound 1 + agent: MV-4-11, CI scores across all 3 ratios averaged. As for the experimental part: as §1, §2, §3, §4
The subject of another data set is MOML-13 cell line. Put plainly: Combination treatments, Cell Titer-Glo viability after 72 hours. The format is cell-based, human. How it is done:
(§5) The additional therapeutic agents for this example were azacitidine (Cayman Chemical Cat No. 11164), decitabine (Sigma Cat No. A3656) and venetoclax (InvivoChem Cat. No. V0001).
(§6) Cell Culture: Three human acute myeloid leukemia tumor cell lines were used in this study: HL60, MV4;11 and MOLM-13. HL60 and MV4;11 were grown in IMDM base media with 20% and 10% FBS, respectively. MOLM-13 was grown in RPMI 1640 base media with 20% FBS. All culture media contained 2 mM glutamine, 100 units/mL sodium penicillin G, […] gentamicin, and 100 μg/mL streptomycin sulfate. The tumor cells were cultured in tissue culture flasks in a humidified incubator at 37° C., in an atmosphere of 5% C02 and 95% air. Assay: Tumor cells were seeded in duplicate in a volume of 100 μL/well of media into 96-well micro-culture plates at initial densities low enough to allow for several population doublings (typically three to five) during the indicated incubation period. After a 24 hour incubation, test agents were added to each well. After 72 hours of culture with test articles, cell viability was determined using the Cell Titer-Glo® (Promega G7571) assay. Briefly, Cell Titer-Glo® (Promega G7571) reagents were equilibrated at room temperature for 30 minutes; 100 μL per well was added at endpoint (72 hours). Plates were gently shaken for two minutes and then incubated at room temperature for ten minutes prior to reading luminescence on the BMG Clariostar Plus microplate reader.
(§7) An IC50 ratio for each combination was calculated from the ratio of the combination IC50 as compared to the applicable no fixed agent (vehicle) control.
A general note: In ATP-based viability assays light output follows the ATP content of the culture.

The next data set deals with MV4; 11 cell line. The description is as above. Type of data set: cell-based, human. How it is done:
as §5, §6, §7

The subject of another data set is HL-60 cell line. The description is as above. Type of data set: cell-based, human. As for the experimental part: as §5, §6, §7
The conditions of data set [1]: 55 mg/kg QD4/3 off. The text has this:
(§8) Group 1 received PO 4-days on, 3-days off doses (QD4/3 off) of vehicle.

The nature of data set [2]: Adverse events and visual impairment in Phase I subjects. The conditions noted are these: at equivalent plasma exposure of Compound 1 and CB-5083.
Data set [3] has as its system human A549 lung adenocarcinoma xenograft tumors. Put plainly: Tumor growth of A549 xenograft tumors. Type of data set: in vivo, mice. The conditions noted are these: 55 mg/kg QD4/3 off.
Text: as §8

[4] abbreviates: MOML-13, fixed agent Compound 1 - 75 nM.
Where [5] appears, read: MV4, 11, fixed agent Compound 1 - 185 nM.
Where [6] appears, read: HL-60, fixed agent Compound 1 - 210 nM.

Structures are written as SMILES. Where two headings read alike, the source gives them in different places.

In the case of `CCc1nc(C(N)=O)c(Nc2ccc(N3CCC(N4CCN(C)CC4)CC3)c(OC)c2)nc1NC1CCOCC1` [Gilteritinib], the “Combination Index of Compound 1 + agent” value is listed as 1.266 with MOML-13, 1.514 with OCI-AML-3 and 0.799 in the data set with MV-4-11.

In the case of `COc1ccc([C@@H](O)c2cc(-c3ncnc4cc(N5CCOCC5)ccc34)c(F)cc2Cl)nn1` [Nedisertib], the “Combination Index of Compound 1 + agent” value was 1.272 in the data set on MOML-13, 1.170 in the data set on OCI-AML-3 and 0.986 with MV-4-11.

Regarding `COCC1(CO)C(=O)C2CCN1CC2` (stereo not shown) [APR-246], the “Combination Index of Compound 1 + agent” value with MOML-13 stood at 1.228; with OCI-AML-3, 1.279; with MV-4-11, 1.285.

Take `NS(=O)(=O)OC[C@@H]1C[C@@H](n2ccc3c(N[C@H]4CCc5ccccc54)ncnc32)C[C@@H]1O` [Pevonedistat]: the “Combination Index of Compound 1 + agent” value stood at 1.120 in the data set with MOML-13, 1.186 in the data set with OCI-AML-3 and 1.302 in the data set with MV-4-11.

Regarding `CC(C)C[C@H](NC(=O)CNC(=O)c1cc(Cl)ccc1Cl)B(O)O` [Ixazomib], the “action of the combination with Compound 1 (synergistic, additive, antagonistic)” value in the data set with MOML-13, with OCI-AML-3 (OCI-AML-3 (FLT3 wildtype)) and with MV-4-11 (MV-4-11 (FLT3 homozygous mutant)) was “antagonistic” in each case. The “Combination Index of Compound 1 + agent” value in the data set on MOML-13 was 1.413; in the data set with OCI-AML-3, 1.438; with MV-4-11 it was 1.546.

On to `Nc1ncn([C@H]2C[C@H](O)[C@@H](CO)O2)c(=O)n1` [Decitabine, decitabine, reference compound], for which the IC50 in the data set with MOML-13 cell line (Homo sapiens, 72 h) was 10.8 nM; in the data set with MOML-13 cell line (setting [4]) it was 6.5 nM; with MV4; 11 cell line (Homo sapiens, MV4-11, 72 h), 390 nM; in the data set with MV4; 11 cell line (setting [5]), 7.1 nM; with HL-60 cell line (setting [6]), 4030 nM; in the data set on HL-60 cell line (Homo sapiens, HL-60, 72 h) it was 5290 nM. Also, the “Combination: Monotherapy IC50 Ratio” value came out at 0.60 in the data set with MOML-13 cell line (setting [4]), 0.02 in the data set on MV4; 11 cell line (setting [5]) and 0.76 in the data set with HL-60 cell line (setting [6]).

`C[C@@H]1COCCN1c1cc(C2([S@](C)(=N)=O)CC2)nc(-c2cc[nH]c3nccc2-3)n1` [AZD6738]: the “Combination Index of Compound 1 + agent” value is recorded as 1.338 in the data set on MOML-13, 1.421 with OCI-AML-3 and 1.228 with MV-4-11.

In the case of `CN(C)CCCOc1ccc(-c2ccc3ncc4c(c3c2)n(C2CCOCC2)c(=O)n4C)cn1` [AZDO156], the “Combination Index of Compound 1 + agent” value turned out to be 1.293 in the data set on MOML-13, 1.159 in the data set on OCI-AML-3 and 1.122 in the data set on MV-4-11.

As for `CC1(C)CCC(CN2CCN(c3ccc(C(=O)NS(=O)(=O)c4ccc(NCC5CCOCC5)c([N+](=O)[O-])c4)c(Oc4cnc5[nH]ccc5c4)c3)CC2)=C(c2ccc(Cl)cc2)C1` [Venetoclax], the “Combination Index of Compound 1 + agent” value with MOML-13 is 0.730; with OCI-AML-3, 0.855; in the data set with MV-4-11, 0.819.

Take `Cc1cc2c(C(N)=O)cccc2n1-c1nc2c(c(NCc3ccccc3)n1)COCC2` [CB-5083, 1-[7,8-dihydro-4-[(phenylmethyl)amino]-5H-pyrano[4,3-d]pyrimidin-2-yl]-2-methyl-1H-indole-4-carboxamide, reference compound]: in data set [1], the drug-related deaths entry is listed as “no drug-related deaths”. The “symptoms of visual impairment or other visual adverse events” value in data set [2] is recorded as “visual adverse events as seen”. The TGI in [3] worked out at 33%.

Take `Cn1ncnc1[C@H]1c2n[nH]c(=O)c3cc(F)cc(c23)N[C@@H]1c1ccc(F)cc1` [Talazoparib]: the “action of the combination with Compound 1 (synergistic, additive, antagonistic)” value with MOML-13 was “strong synergy”. In addition, the “Combination Index of Compound 1 + agent” value in the data set on MOML-13 was found to be 0.529; in the data set on OCI-AML-3 it was 0.986; with MV-4-11, 0.769.

In the case of `Nc1ncn([C@@H]2O[C@H](CO)[C@@H](O)[C@H]2O)c(=O)n1` [Azacitidine, azacitidine, reference compound], the IC50 is 445 nM in the data set with MOML-13 cell line (Homo sapiens, 72 h, MOML-13, no fixed agent (vehicle), read-out: IC50); 1100 nM in the data set with MV4; 11 cell line (Homo sapiens, 72 h, MV4, 11, no fixed agent (vehicle), read-out: IC50); 2400 nM in the data set with HL-60 cell line (Homo sapiens, 72 h, HL-60, no fixed agent (vehicle), read-out: IC50). In addition, the “Combination: Monotherapy IC50 Ratio” value in the data set on MOML-13 cell line (setting [4]) stood at 0.28; in the data set with MV4; 11 cell line (setting [5]), 0.10; with HL-60 cell line (setting [6]), 0.82.
